# Reference: patent US20100324058A1 (Obschestvo S Organichennoi Otvetsttvennoctiyou "Bionika", priority 2007, published 2010)
# Target: thrombin (Homo sapiens, UniProt P00734)
# Experiment: Effect of test compounds on thrombin activity: hydrolysis rate of chromogenic (Chromozim TH) or fluorogenic (BOC-Ala-Pro-Arg-AMC) substrate
# Type: biochemical
# Settings: for inhibition at 0.02 µM: concentration of compound 20 nM; for inhibition at 0.1 µM: concentration of compound 100 nM; for inhibition at 0.2 µM: concentration of compound 200 nM; for inhibition at 0.00125 µM: concentration of compound 1.25 nM; for inhibition at 0.0025 µM: concentration of compound 2.5 nM; for inhibition at 0.005 µM: concentration of compound 5 nM; for inhibition at 0.0125 µM: concentration of compound 12.5 nM; for inhibition at 0.025 µM: concentration of compound 25 nM; for inhibition at 0.05 µM: concentration of compound 50 nM; for inhibition at 0.125 µM: concentration of compound 125 nM; for inhibition at 0.25 µM: concentration of compound 250 nM
# From the text: The effect of the synthesized substances on thrombin activity was studied by measuring the hydrolysis rate of specific low molecular weight substrates with thrombin in an aqueous buffering solution in the absence and presence of these compounds. One of these substrates was chromogenic substrate Chromozim TH (CTH): N-(p-Tosyl)-Gly-Pro-Arg-pNA [Sonder S A, Fenton J W 2nd. Thrombin Specificity with Tripeptide Chromogenic Substrates: Comparison of Human and Bovine Thrombins with and without Fibrinogen Clotting Activities. Clin. Chem., 1986, 32(6):934-937]. Another substrate that was used in a number of experiments was fluorogenic substrate BOC-Ala-Pro-Arg-AMC (S), wherein BOC is butoxycarbonyl residue, and AMC is 7-amino-4-methylcoumaryl [Kawabata S, Miura T, Morita T, Kato H, Fujikawa K, Ivanaga S, Takada K, Kimura T, Sakakibara S. Highly Sensitive peptide-4-methylcoumaryl-7-amide Substrates for Blood-Clotting Proteases and Trypsin. Eur. J. Biochem., 1988, 172(1):17-25].
# The holes of a common 96-hole board were filled with a buffer containing 140 mM of NaCl, 20 mM of HEPES, and 0.1% polyethylene glycol (Mw=6,000), at pH=8.0. […] When a chromogenic substrate was used, accumulation of the colored reaction product—para-nitroaniline—was followed on a spectrophotometric Molecular Devices board reader (Thermomax, U.S.), measuring the increase in optical density on the 405 nm wavelength. […] The reaction kinetics was registered on a fluorometric Titertek Fluoroskan board reader (LabSystem, Finland).
# The initial reaction rate was measured as the tangent of the kinetic curve inclination angle on a straight section (first 10 to 15 minutes of registration). Reaction rate without an inhibitor was a ssumed to be 100%. The mean arithmetic value of two independent measurements was used as the end result.
# [1] = concentration of compound 0.5 mcM
# [2] = concentration of compound 1 mcM
# [3] = concentration of compound 2 mcM
# [4] = concentration of compound 5 mcM
# [5] = concentration of compound 10 mcM
# [6] = concentration of compound 20 mcM
# [7] = concentration of compound 50 mcM
# [8] = concentration of compound 100 mcM
# [9] = concentration of compound 0.1 mcM
# [10] = concentration of compound 0.25 mcM
# [11] = concentration of compound 25 mcM
# [12] = concentration of compound 250 mcM
# [13] = concentration of compound 2.5 mcM
# [14] = concentration of compound 1.25 mcM
smiles,measurement,setting,value
"Cc1cc(OCCCSC(=N)N)cc(OS(=O)(=O)c2ccccc2)c1.I [HC-018s-IOC, 3-(3-methyl-5-(benzenesulfonyloxy)phenoxy)propyl-isothiouronium iodide]",inhibition at 0.02 µM,,16%
same,inhibition at 0.04 µM,concentration of compound 40 nM,33%
same,inhibition at 0.1 µM,,49%
same,inhibition at 0.2 µM,,64%
same,"Hydrolysis rate inhibition, %",[1],93%
same,"Hydrolysis rate inhibition, %",[2],98%
same,"Hydrolysis rate inhibition, %",[3],100%
same,"Hydrolysis rate inhibition, %",[4],100%
same,"Hydrolysis rate inhibition, %",[5],100%
same,"Hydrolysis rate inhibition, %",[6],100%
same,"Hydrolysis rate inhibition, %",[7],100%
same,"Hydrolysis rate inhibition, %",[8],100%
Cc1cc(OCCCn2ccsc2=N)cc(OS(=O)(=O)c2ccccc2)c1,inhibition at 0.1 µM,,5%
same,inhibition at 0.2 µM,,10%
same,"Hydrolysis rate inhibition, %",[1],23%
same,"Hydrolysis rate inhibition, %",[3],57%
same,"Hydrolysis rate inhibition, %",[4],73%
same,"Hydrolysis rate inhibition, %",[6],95%
same,"Hydrolysis rate inhibition, %",[7],95%
same,"Hydrolysis rate inhibition, %",[8],96%
same,"Hydrolysis rate inhibition, %",concentration of compound 200 mcM,97%
Nc1cc[n+](CCOc2cccc(NS(=O)(=O)c3ccccc3)c2)cc1 [HC_041s_IOC],"Hydrolysis rate inhibition, %",[9],56%
same,"Hydrolysis rate inhibition, %",[10],62%
same,"Hydrolysis rate inhibition, %",[1],75%
same,"Hydrolysis rate inhibition, %",concentration of compound 1.75 mcM,88%
same,"Hydrolysis rate inhibition, %",concentration of compound 3.75 mcM,90%
same,"Hydrolysis rate inhibition, %",[11],95%
same,"Hydrolysis rate inhibition, %",[12],99%
Cc1cc(OCCSC(=N)N)cc(OS(=O)(=O)c2ccccc2Cl)c1 [HC_046s_IOC],inhibition at 0.00125 µM,,18%
same,inhibition at 0.0025 µM,,39%
same,inhibition at 0.005 µM,,59%
same,inhibition at 0.0125 µM,,77%
same,inhibition at 0.025 µM,,92%
Cc1cc(OCC[n+]2ccc(N)nc2)cc(OS(=O)(=O)c2ccccc2)c1.[I-] [HC_047s_IOC],inhibition at 0.01 µM,concentration of compound 10 nM,8%
same,inhibition at 0.025 µM,,10%
same,inhibition at 0.05 µM,,14%
same,"Hydrolysis rate inhibition, %",[10],36%
same,"Hydrolysis rate inhibition, %",[1],49%
same,"Hydrolysis rate inhibition, %",concentration of compound 1.85 mcM,84%
same,"Hydrolysis rate inhibition, %",[13],90%
"Cc1cc(OCC[n+]2ccc(N)cc2)cc(OS(=O)(=O)c2ccccc2Cl)c1 [HC-025s-IOC, 4-amino-1-(2-(3-methyl-5-(2-chlorobenzenesulfonyloxy)phenoxy)ethyl)-pyridinium iodide]",inhibition at 0.00125 µM,,69%
same,inhibition at 0.0025 µM,,52%
same,inhibition at 0.0063 µM,concentration of compound 6.3 nM,70%
same,inhibition at 0.0125 µM,,81%
same,inhibition at 0.05 µM,,96%
same,inhibition at 0.125 µM,,98%
C/N=C(/N)SCCCOc1cc(C)cc(OS(=O)(=O)c2ccccc2Cl)c1.I [HC_032s_IOC],inhibition at 0.05 µM,,10%
same,inhibition at 0.1 µM,,17%
same,"Hydrolysis rate inhibition, %",[4],48%
same,"Hydrolysis rate inhibition, %",[5],71%
Cc1cc(OCCC[n+]2ccsc2N)cc(OS(=O)(=O)c2ccccc2F)c1.[I-] [HC_030s_IOC],inhibition at 0.02 µM,,5%
same,inhibition at 0.05 µM,,18%
same,"Hydrolysis rate inhibition, %",[3],72%
same,"Hydrolysis rate inhibition, %",[4],88%
same,"Hydrolysis rate inhibition, %",[5],93%
"Cc1cc(OCCC[n+]2ccc(N)cc2)cc(OS(=O)(=O)c2ccccc2Cl)c1 [HC-023s-IOC, 4-AMINO-1-(3-(3-METHYL-5-(2-CHLOROBENZENE SULFONYLOXY)PHENOXY)PROPYL)-PYRIDINIUM IODIDE]","Hydrolysis rate inhibition, %",concentration of compound 0.7 mcM,13%
same,"Hydrolysis rate inhibition, %",concentration of compound 1.4 mcM,34%
same,"Hydrolysis rate inhibition, %",concentration of compound 3.4 mcM,50%
same,"Hydrolysis rate inhibition, %",concentration of compound 34 mcM,86%
same,"Hydrolysis rate inhibition, %",concentration of compound 68 mcM,99%
same,"Hydrolysis rate inhibition, %",[12],100%
CNc1ccc(S(=O)(=O)N(C)c2ccccc2)cc1NC(=O)CC[n+]1ccc(N(C)C)cc1.[Cl-] [HC-022s-IOC],"Hydrolysis rate inhibition, %",[10],21%
same,"Hydrolysis rate inhibition, %",[1],18%
same,"Hydrolysis rate inhibition, %",[4],27%
same,"Hydrolysis rate inhibition, %",[11],34%
same,"Hydrolysis rate inhibition, %",[7],40%
same,"Hydrolysis rate inhibition, %",concentration of compound 130 mcM,36%
same,"Hydrolysis rate inhibition, %",[12],51%
"Cc1cc(OCCCSC(=N)N)cc(OS(=O)(=O)c2ccccc2Cl)c1 [HC-026s-IOC, 3-(3-methyl-5-(2-chlorobenzenesulfonyloxy)phenoxy)propyl-isothiouronium iodide]",inhibition at 0.005 µM,,47%
same,inhibition at 0.0125 µM,,40%
same,inhibition at 0.025 µM,,64%
same,inhibition at 0.125 µM,,68%
"Cc1cc(OCCC[n+]2ccc(N)cc2)cc(OS(=O)(=O)c2ccccc2)c1 [HC-016s-IOC, 4-amino-1-(3-(3-methyl-5-(benzenesulfonyloxy)phenoxy)propyl)-pyridinium iodide]",inhibition at 250 µM,concentration of compound 0.25 mM,84%
same,inhibition at 500 µM,concentration of compound 0.5 mM,100%
Cc1cc(OCC[n+]2ccsc2N)cc(OS(=O)(=O)c2ccccc2Cl)c1.[I-] [HC_045s_IOC],"Hydrolysis rate inhibition, %",concentration of compound 0.125 mcM,10%
same,"Hydrolysis rate inhibition, %",[10],18%
same,"Hydrolysis rate inhibition, %",[1],42%
same,"Hydrolysis rate inhibition, %",[14],66%
same,"Hydrolysis rate inhibition, %",[13],87%
"Cc1cc(OCCSC(=N)N)cc(OS(=O)(=O)c2ccccc2)c1.I [HC-020s-IOC, 2-(3-methyl-5-(benzenesulfonyloxy)phenoxy)ethyl-isothioronium iodide]",inhibition at 0.005 µM,,54%
same,inhibition at 0.0125 µM,,46%
same,inhibition at 0.025 µM,,59%
same,inhibition at 0.05 µM,,68%
same,inhibition at 0.125 µM,,81%
same,inhibition at 0.25 µM,,94%
same,inhibition at 0.5 µM,concentration of compound 500 nM,96%
same,"Hydrolysis rate inhibition, %",[14],98%
same,"Hydrolysis rate inhibition, %",[13],99%
same,"Hydrolysis rate inhibition, %",[4],99%
Cc1cc(OCC[n+]2ccc(N)cc2)cc(OS(=O)(=O)c2ccccc2S(C)(=O)=O)c1 [HC_036s_IOC],inhibition at 0.0025 µM,,29%
same,inhibition at 0.005 µM,,28%
same,inhibition at 0.025 µM,,79%
same,inhibition at 0.05 µM,,88%
same,"Hydrolysis rate inhibition, %",[13],96%
Cc1cc(OCCC[n+]2ccc(N)cc2)cc(OS(=O)(=O)c2ccccc2F)c1.[I-] [HC_029s_IOC],inhibition at 0.05 µM,,8%
same,inhibition at 0.1 µM,,14%
same,inhibition at 0.25 µM,,16%
same,"Hydrolysis rate inhibition, %",[1],25%
same,"Hydrolysis rate inhibition, %",[2],54%
same,"Hydrolysis rate inhibition, %",[13],75%
same,"Hydrolysis rate inhibition, %",[4],81%
"Cc1cc(OCC[n+]2ccc(N)cc2)cc(OS(=O)(=O)c2ccccc2)c1 [HC-019s-IOC, 4-amino-1-(2-(3-methyl-5-(benzene Sulfonyloxy)phenoxy)ethyl)-pyridinium iodide]",inhibition at 0.0025 µM,,55%
same,inhibition at 0.005 µM,,88%
same,inhibition at 0.0125 µM,,90%
same,inhibition at 0.025 µM,,88%
same,inhibition at 0.05 µM,,95%
same,inhibition at 0.125 µM,,94%
Cc1ccc(S(=O)(=O)Oc2cc(C)cc(OCC[n+]3ccc(N)cc3)c2)cc1 [HC_038s_IOC],inhibition at 0.005 µM,,47%
same,inhibition at 0.025 µM,,56%
same,inhibition at 0.05 µM,,85%
same,"Hydrolysis rate inhibition, %",[13],96%
CNc1ccc(S(=O)(=O)N(C)c2ccccc2)cc1NC(=O)CC[n+]1ccc(N)cc1.[Cl-] [HC_028s_IOC],"Hydrolysis rate inhibition, %",[9],15%
same,"Hydrolysis rate inhibition, %",[10],34%
same,"Hydrolysis rate inhibition, %",[1],46%
same,"Hydrolysis rate inhibition, %",[2],44%
same,"Hydrolysis rate inhibition, %",[13],63%
same,"Hydrolysis rate inhibition, %",[4],78%
same,"Hydrolysis rate inhibition, %",[11],95%
same,"Hydrolysis rate inhibition, %",[7],95%
same,"Hydrolysis rate inhibition, %",[12],100%
same,"Hydrolysis rate inhibition, %",concentration of compound 500 mcM,100%
Cc1cc(OCC[n+]2ccc(N)cc2)cc(OS(=O)(=O)c2ccc(Cl)cc2)c1 [HC_039s_IOC],inhibition at 0.0025 µM,,24%
same,inhibition at 0.005 µM,,44%
same,inhibition at 0.025 µM,,73%
same,inhibition at 0.05 µM,,88%
same,"Hydrolysis rate inhibition, %",[13],98%
